Assay results from patent US20260035364A1, “BICYCLIC TETRAHYDROTHIAZEPINE DERIVATIVES” (Hoffmann-La Roche Inc., priority 2022, published 2026).

Tested on: primary human T-cells
Assay: IL2 secretion measurements in CD3-stimulated T-cells
Format: cell-based
Conditions: Homo sapiens, T-cell, 24 h, CD3 condition; for Emax: IL2 after 24 hours, 20 μM reference compound A1 = 100%, read-out: Emax IL2 (% activation); for EC50: IL2 secretion after 24 hours, read-out: Tcell IL2 CD3 EC50
Method in brief: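 Expanded primary human T-cells (100k/well) were stimulated on CD3 antibody-coated or PBS-coated plates with compounds in 5–6 point dose response from 20 or 10 μM top final (dilution factor 3.333, 0.2% DMSO final). IL2 in 24 h supernatants was measured by ProQuantum immunoassay or ELISA, normalized to DMSO (0%) and 20 μM reference compound A1 (100%) to fit EC50 and Emax.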

SMILES	Emax [%]	EC50 [µM]
CC(C)(c1nnc(-c2ccc3c(c2)N(Cc2ccc(OC(F)(F)F)cc2)C(=O)[C@@H](N)CS3(=O)=O)o1)S(C)(=O)=O [Example 64, (3R)-3-amino-7-[5-(1-methyl-1-methylsulfonyl-ethyl)-1,3,4-oxadiazol-2-yl]-1,1-dioxo-5-[[4-(trifluoromethoxy)phenyl]methyl]-2,3-dihydro-126,5-benzothiazepin-4-one]	55	2.49
CC(C)(c1nnc(-c2ccc3c(c2)N(Cc2ccc(Oc4cccc(OC(F)F)c4)cc2)C(=O)[C@@H](N)CS3(=O)=O)o1)S(C)(=O)=O [Example 47, (3R)-3-amino-5-[[4-[3-(difluoromethoxy)phenoxy]phenyl]methyl]-7-[5-(1-methyl-1-methylsulfonyl-ethyl)-1,3,4-oxadiazol-2-yl]-1,1-dioxo-2,3-dihydro-1λ6,5-benzothiazepin-4-one]	135	1.37
CN(Cc1ccccc1)c1ccc(CN2C(=O)[C@@H](N)CS(=O)(=O)c3ccc(-c4nnc(C(C)(C)S(C)(=O)=O)o4)cc32)cc1 [Example 15, (3R)-3-amino-5-[[4-[benzyl(methyl)amino]phenyl]methyl]-7-[5-(1-methyl-1-methylsulfonyl-ethyl)-1,3,4-oxadiazol-2-yl]-1,1-dioxo-2,3-dihydro-1λ6,5-benzothiazepin-4-one]	99	3.53
CC(C)(c1nnc(-c2ccc3c(c2)N(Cc2ccc(OCCC(F)(F)F)cc2)C(=O)[C@@H](N)CS3(=O)=O)o1)S(C)(=O)=O [Example 23, (3R)-3-amino-7-[5-(1-methyl-1-methylsulfonyl-ethyl)-1,3,4-oxadiazol-2-yl]-1,1-dioxo-5-[[4-(3,3,3-trifluoropropoxy)phenyl]methyl]-2,3-dihydro-1λ6,5-benzothiazepin-4-one]	62	7.33
COCC(C)(C)Oc1ccc(CN2C(=O)[C@@H](N)CS(=O)(=O)c3cc(F)c(-c4noc(C(C)(C)S(C)(=O)=O)n4)cc32)cc1 [Example 62, (3R)-3-amino-8-fluoro-5-[[4-(2-methoxy-1,1-dimethyl-ethoxy)phenyl]methyl]-7-[5-(1-methyl-1-methylsulfonyl-ethyl)-1,2,4-oxadiazol-3-yl]-1,1-dioxo-2,3-dihydro-benzothiazepin-4-one]	169	3.35
